Results: US9102752B2, “Peptide vaccine for prevention and immunotherapy of dementia of the Alzheimer's type” (United Biomedical, Inc., priority 2013, dated 2015)

Key:
[1] = system: anti-Aβ antibodies in macaque antisera; assay: Specificity analysis (10-mer peptide ELISA) of antisera from Cynomolgus macaques; type: binding
[2] = system: anti-Aβ antibodies in sera of vaccinated patients; assay: Epitope mapping, competitive binding inhibition EIA with patient sera (10-mer peptides, IC50); set-up: species or system human; Epitope mapping, fine specificity analysis, serum of subject P210: unit not given here; conditions: for Epitope mapping, fine specificity analysis, serum of subject P101: serum 16 wpi of vaccinated patient P101; for Epitope mapping, fine specificity analysis, serum of subject P102: serum 16 wpi of vaccinated patient P102; for Epitope mapping, fine specificity analysis, serum of subject P103: serum 16 wpi of vaccinated patient P103; for Epitope mapping, fine specificity analysis, serum of subject P104: serum 16 wpi of vaccinated patient P104; for Epitope mapping, fine specificity analysis, serum of subject P105: serum 16 wpi of vaccinated patient P105; for Epitope mapping, fine specificity analysis, serum of subject P106: serum 16 wpi of vaccinated patient P106; for Epitope mapping, fine specificity analysis, serum of subject P107: serum 16 wpi of vaccinated patient P107; for Epitope mapping, fine specificity analysis, serum of subject P108: serum 16 wpi of vaccinated patient P108; for Epitope mapping, fine specificity analysis, serum of subject P109: serum 16 wpi of vaccinated patient P109; for Epitope mapping, fine specificity analysis, serum of subject P201: serum 16 wpi of vaccinated patient P201; for Epitope mapping, fine specificity analysis, serum of subject P202: serum 16 wpi of vaccinated patient P202; for Epitope mapping, fine specificity analysis, serum of subject P203: serum 16 wpi of vaccinated patient P203; for Epitope mapping, fine specificity analysis, serum of subject P204: serum 16 wpi of vaccinated patient P204; for Epitope mapping, fine specificity analysis, serum of subject P205: serum 16 wpi of vaccinated patient P205; for Epitope mapping, fine specificity analysis, serum of subject P206: serum 16 wpi of vaccinated patient P206; for Epitope mapping, fine specificity analysis, serum of subject P207: serum 16 wpi of vaccinated patient P207; for Epitope mapping, fine specificity analysis, serum of subject P208: serum 16 wpi of vaccinated patient P208; for Epitope mapping, fine specificity analysis, serum of subject P209: serum 16 wpi of vaccinated patient P209; for Epitope mapping, fine specificity analysis, serum of subject P210: serum 16 wpi of vaccinated patient P210
[3] = antisera of macaques given UBI AD Vaccine 150 μg/dose, 9 WPI
[4] = antisera of macaques given UBI AD Vaccine 150 μg/dose, 15 WPI
[5] = antisera of macaques given UBI AD Vaccine 750 μg/dose, 9 WPI
[6] = antisera of macaques given UBI AD Vaccine 750 μg/dose, 15 WPI

Substance | Reactivity of antisera with peptide (specificity analysis ELISA) [1, 3] | Reactivity of antisera with peptide (specificity analysis ELISA) [1, 4] | Reactivity of antisera with peptide (specificity analysis ELISA) [1, 5] | Reactivity of antisera with peptide (specificity analysis ELISA) [1, 6] | Epitope mapping, fine specificity analysis, serum of subject P101 [2] | Epitope mapping, fine specificity analysis, serum of subject P102 [2] | Epitope mapping, fine specificity analysis, serum of subject P103 [2] | Epitope mapping, fine specificity analysis, serum of subject P104 [2] | Epitope mapping, fine specificity analysis, serum of subject P105 [2] | Epitope mapping, fine specificity analysis, serum of subject P106 [2] | Epitope mapping, fine specificity analysis, serum of subject P107 [2] | Epitope mapping, fine specificity analysis, serum of subject P108 [2] | Epitope mapping, fine specificity analysis, serum of subject P109 [2] | Epitope mapping, fine specificity analysis, serum of subject P201 [2] | Epitope mapping, fine specificity analysis, serum of subject P202 [2] | Epitope mapping, fine specificity analysis, serum of subject P203 [2] | Epitope mapping, fine specificity analysis, serum of subject P204 [2] | Epitope mapping, fine specificity analysis, serum of subject P205 [2] | Epitope mapping, fine specificity analysis, serum of subject P206 [2] | Epitope mapping, fine specificity analysis, serum of subject P207 [2] | other results
14 (VKMDAEFRHD; PEPTIDE (1)..(10) Abeta -3-7 or APP 770(V669-D678); listed as Homo sapiens) [compound 14] | 0.068 | 0.053 | 0.061 | 0.054 | 31 | 0 | 0 | 0 | 0 | 0 | 0 | 0 | 0 | 0 | 0 | 0 | 1 | 0 | 0 | 0 | Epitope mapping, fine specificity analysis, serum of subject P208 [2]: 0; Epitope mapping, fine specificity analysis, serum of subject P209 [2]: 0; Epitope mapping, fine specificity analysis, serum of subject P210 [2]: 13
18 (EFRHDSGYEV; PEPTIDE (1)..(10) Abeta 3-12 or APP 770(E674-V683); listed as Homo sapiens) [compound 18] | 0.047 | 0.060 | 0.042 | 0.052 | 0 | 0 | 0 | 0 | 0 | 0 | 0 | 0 | 0 | 0 | 0 | 0 | 0 | 0 | 0 | 0 | Epitope mapping, fine specificity analysis, serum of subject P208 [2]: 0; Epitope mapping, fine specificity analysis, serum of subject P209 [2]: 0; Epitope mapping, fine specificity analysis, serum of subject P210 [2]: 0
17 (AEFRHDSGYE; PEPTIDE (1)..(10) Abeta 2-11 or APP 770(A673-E682); listed as Homo sapiens) [compound 17] | 0.058 | 0.059 | 0.054 | 0.060 | 2 | 0 | 0 | 0 | 0 | 0 | 0 | 0 | 0 | 3 | 0 | 0 | 0 | 0 | 0 | 0 | Epitope mapping, fine specificity analysis, serum of subject P208 [2]: 0; Epitope mapping, fine specificity analysis, serum of subject P209 [2]: 0; Epitope mapping, fine specificity analysis, serum of subject P210 [2]: 0
24 (GYEVHHQKLV; PEPTIDE (1)..(10) Abeta 9-18 or APP 770(G680-V689); listed as Homo sapiens) [compound 24] | 0.055 | 0.067 | 0.052 | 0.059 | 0 | 0 | 0 | 0 | 0 | 0 | 0 | 0 | 0 | 0 | 0 | 0 | 0 | 0 | 0 | 16 | Epitope mapping, fine specificity analysis, serum of subject P208 [2]: 0; Epitope mapping, fine specificity analysis, serum of subject P209 [2]: 0; Epitope mapping, fine specificity analysis, serum of subject P210 [2]: 0
12 (SEVKMDAEFR; PEPTIDE (1)..(10) Abeta -5-5 or APP 770(S667-R676); listed as Homo sapiens) [compound 12] | 0.056 | 0.053 | 0.054 | 0.050 | 10 | 0 | 0 | 0 | 0 | 0 | 0 | 0 | 0 | 0 | 0 | 0 | 0 | 0 | 0 | 0 | Epitope mapping, fine specificity analysis, serum of subject P208 [2]: 0; Epitope mapping, fine specificity analysis, serum of subject P209 [2]: 0; Epitope mapping, fine specificity analysis, serum of subject P210 [2]: 0
22 (DSGYEVHHQK; PEPTIDE (1)..(10) Abeta 7-16 or APP 770(D678-K687); listed as Homo sapiens) [compound 22] | 0.270 | 0.289 | 0.405 | 0.197 | 214 | 0 | 0 | 0 | 0 | 0 | 0 | 0 | 0 | 0 | 0 | 0 | 0 | 0 | 0 | 0 | Epitope mapping, fine specificity analysis, serum of subject P208 [2]: 0; Epitope mapping, fine specificity analysis, serum of subject P209 [2]: 0; Epitope mapping, fine specificity analysis, serum of subject P210 [2]: 0
16 (MDAEFRHDSG; PEPTIDE (1)..(10) Abeta -1-9 or APP 770(M671-G680); listed as Homo sapiens) [compound 16] | 0.056 | 0.061 | 0.051 | 0.056 | 420 | 12 | 0 | 0 | 0 | 0 | 0 | 0 | 0 | 9 | 116 | 0 | 17 | 0 | 0 | 2 | Epitope mapping, fine specificity analysis, serum of subject P208 [2]: 6; Epitope mapping, fine specificity analysis, serum of subject P209 [2]: 0; Epitope mapping, fine specificity analysis, serum of subject P210 [2]: 121
